Source: patent publication EP0174085A2, “Bisarylamides of N,N'-di-[1-aminoalkyl-2]-alkylene diamines having a cardiovascular activity” (BEECHAM - WUELFING GmbH & Co. KG, priority 1984, dated 1986)

Tests used:
[1] = system: anaesthetized rats; test: Haemodynamic profile in anaesthetized rats; assay type: in vivo; design: Dhr20 = i.v. dose which reduces heart rate by ca. 20%: unit not given here; conditions: for %effect of Dhr20 on BP (mean arterial blood pressure) / %effect of Dhr20 on LVP (systolic left ventricular pressure) / %effect of Dhr20 on dp/dtmax: at Dhr20, i.v.; for %effect of Dhr20 on BP (mean arterial blood pressure) / %effect of Dhr20 on LVP (systolic left ventricular pressure) / %effect of Dhr20 on dp/dtmax / Dhr20 = i.v. dose which reduces heart rate by ca. 20%: rat; for %effect of Dhr20 on dp/dtmax: left ventricular dp/dt max
Source text: The effect of compounds of the invention on heart rate, systolic left ventricular pressure, left ventricular dp/dt max and mean arterial blood pressure was investigated so as to obtain information on the anti-anginal potential of these compounds, by reducing the oxygen demand of the ischaemic heart.

[2] = system: conscious rabbits; test: Antiarrhythmic activity, suprathreshold cardiac electric stimulation in conscious rabbits; assay type: in vivo
Experimental: Compound (El) infused at 2.5mg/min in the ear vein of conscious rabbits inhibited the arrhythmogenic effect of suprathreshold cardiac electric stimulation. The therapeutic index, i.e. the ratio between the dose of compound required to produce A-V-block (8 mg/kg) and that dose which gave an antiarrhythmic effect (0.9mg/kg) was 8.9.

[3] = system: anaesthetized rats; test: Antianginal activity, vasopressin-induced ST-segment elevation in the ECG, i.v.; assay type: in vivo; conditions: Rattus norvegicus, iv, reduction of ST-segment elevation after i.v. 1 I.U./kg vasopressin, read-out: minimum effective i.v. antianginal dose
[4] = system: guinea-pig papillary muscle; test: Ca++-antagonistic activity, calcium dependent action potentials in papillary muscle in vitro; assay type: cell-based; conditions: 1-3 x 10^-6M; 34+ 1°C; krebs medium containing 26 nM K+ and 0.5 nM BaCl2
Experimental: In guinea-pig papillary muscle (34+ 1°C) in vitro, the Compound (El) (1-3 x 10-^6M) depressed the maximal rate of rise (Vmax) of calcium dependent action potentials evoked in krebs medium containing […] K^+ and […], BaC12. These action potentials were recorded using conventional intracellular techniques.

[5] = system: anaesthetized rats; test: Vasopressin test in anaesthetized rats (coronary spasm), intraduodenal; assay type: in vivo; conditions: 32mg/kg i.d.
Experimental: Vasopressin (Lysopressin: 1 I.U./kg) was administered intravenously in order to provoke coronary spasm. Compound (El) was active against coronary spasm at a dose of 32mg/kg i.d. with a duration of action greater than 2 hours. The ability of test compounds to reduce coronary spasm is taken as a measure of their anti-anginal potential in spasm - induced angina pectoris. (Ref. Drug.Res. 33(11), 8,1117-1121 (1983)).

Compound	%effect of Dhr20 on BP (mean arterial blood pressure) [1]	%effect of Dhr20 on LVP (systolic left ventricular pressure) [1]	%effect of Dhr20 on dp/dtmax [1]	i.v. duration of action on heart rate (rat) [1]	Dhr20 = i.v. dose which reduces heart rate by ca. 20% [1]	minimal effective dose ([2]; Oryctolagus cuniculus, iv, infusion in the ear vein, conscious rabbits, read-out: dose which gave an antiarrhythmic effect)	arrhythmogenic effect of suprathreshold cardiac electric stimulation ([2]; infused at 2.5mg/min in the ear vein, conscious rabbits)	dose of compound required to produce A-V-block ([2]; infusion in the ear vein, conscious rabbits)	therapeutic index ([2]; ratio of A-V-block dose to antiarrhythmic dose)	minimal effective dose [3]	maximal rate of rise (Vmax) of calcium dependent action potentials [4]	duration of action ([5]; against coronary spasm)	activity against coronary spasm ([5]; vasopressin (Lysopressin) 1 I.U./kg i.v.)
CCC(CNC(=O)c1cccc(Cl)c1)N(C)CCN(C)C(CC)CNC(=O)c1cccc(Cl)c1 (stereo not drawn) [Compound E3]	-16%	-2%	-15%	10 min	1.6								
CCC(CNC(=O)c1ccc(C#N)cc1)N(C)CCN(C)C(CC)CNC(=O)c1ccc(C#N)cc1 (stereo not drawn) [Compound E7]	-6%	-5%	-15%	5 to 10 min	3.2								
CCC(CNC(=O)c1cc(OC)c(OC)c(OC)c1)N(C)CCN(C)C(CC)CNC(=O)c1cc(OC)c(OC)c(OC)c1 (stereo not drawn) [Compound E1, N,N'-dimethyl-N,N'-di-[1-(3,4,5-trimethoxybenzamido)-butyl-(2)]-ethylenediamine]		-17%	-24%	5 min	3.2	0.9 mg/kg	inhibited	8 mg/kg	8.9	0.2 mg/kg	depressed	greater than 2 hours	active
CCC(CNC(=O)c1ccncc1)N(C)CCN(C)C(CC)CNC(=O)c1ccncc1 (stereo not drawn) [Compound E29]	-10%	-6%	-2%	10 min	12.8								
CCC(CNC(=O)c1ccc2c(c1)OCO2)N(C)CCN(C)C(CC)CNC(=O)c1ccc2c(c1)OCO2 (stereo not drawn) [Compound E12]	-4%	-8%	-11%	10 to 15 min	1.6								
CCC(CNC(=O)c1ccc(OC)c(OC)c1)N(C)CCN(C)C(CC)CNC(=O)c1ccc(OC)c(OC)c1 (stereo not drawn) [Compound E11]	-2%	-4%	-7%	5 to 10 min	3.2								
CCC(CNC(=O)c1cc(OC)c(OC)c(OC)c1)N1CCC(N(C)C(CC)CNC(=O)c2cc(OC)c(OC)c(OC)c2)CC1 (stereo not drawn) [Compound E38, 1-[1-(3,4,5-trimethoxybenzamido-butyl-(2))]-4-N-methyl-N-[1-(3,4,5-trimethoxybenzamido-butyl-(2))]-amino-piperidine]	-6%	-7%	-32%	10 to 15 min	12.8								
CCC(CNC(=O)c1cccnc1)N(C)CCN(C)C(CC)CNC(=O)c1cccnc1 (stereo not drawn) [Compound E30, N,N'-dimethyl-N,N'-di[1-nicotinoylamido-butyl-(2)]-ethylene-diamine]	-14%	-9%	-15%	10 min	12.8								
COc1cc(C(=O)NCC2CCCCN2CCN2CCCCC2CNC(=O)c2cc(OC)c(OC)c(OC)c2)cc(OC)c1OC (stereo not drawn) [Compound E16]	-17%	-17.3%	-32%	10 min	6.4								
CCC(CNC(=O)c1cc(Cl)cc(Cl)c1)N(C)CCN(C)C(CC)CNC(=O)c1cc(Cl)cc(Cl)c1 (stereo not drawn) [Compound E2, N,N'-dimethyl-N,N'-di-(2-[1-(3,5-dichlorobenzamido)] -butyl)-ethylene-diamine]	-7%		-21%	15 min	3.2								
CC[C@@H](CNC(=O)c1cc(OC)c(OC)c(OC)c1)N(C)CCN(C)[C@@H](CC)CNC(=O)c1cc(OC)c(OC)c(OC)c1 [Compound E8]	-30%	-29%	-36%		3.2								
